Key:
[1] = species on record: Mus musculus; assay: Effective dose measured for mouse ex vivo whole blood LTB-4 production; Range is from 3-10.; assay type: functional
[2] = target: T1, Leukotriene A-4 hydrolase (Homo sapiens, UniProt P09960); assay: Inhibition of human whole blood LTB-4 production (Leukotriene B-4).; assay type: functional
T1 sequence (P09960 whole entry): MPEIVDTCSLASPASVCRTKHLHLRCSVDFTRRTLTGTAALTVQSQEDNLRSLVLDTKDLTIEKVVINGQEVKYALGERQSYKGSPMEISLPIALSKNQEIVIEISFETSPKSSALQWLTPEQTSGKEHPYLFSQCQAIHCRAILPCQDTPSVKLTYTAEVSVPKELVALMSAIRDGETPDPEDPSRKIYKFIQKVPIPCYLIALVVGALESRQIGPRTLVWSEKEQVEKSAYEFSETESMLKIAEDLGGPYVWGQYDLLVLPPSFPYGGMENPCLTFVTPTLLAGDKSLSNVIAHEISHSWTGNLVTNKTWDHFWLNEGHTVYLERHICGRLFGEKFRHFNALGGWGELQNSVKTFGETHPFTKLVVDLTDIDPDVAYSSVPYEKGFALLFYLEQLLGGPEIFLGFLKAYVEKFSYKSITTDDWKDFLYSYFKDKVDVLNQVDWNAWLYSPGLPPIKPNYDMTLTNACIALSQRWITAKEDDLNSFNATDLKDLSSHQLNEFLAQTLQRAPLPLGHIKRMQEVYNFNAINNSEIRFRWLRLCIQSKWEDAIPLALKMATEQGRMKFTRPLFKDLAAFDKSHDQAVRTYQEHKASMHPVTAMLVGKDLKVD

[3] = target: T1, Leukotriene A-4 hydrolase; assay: Inhibition of human leukotriene A4 hydrolase (LTA-4).
[4] = system: Mus musculus; assay: Percentage inhibition of mouse ex vivo whole blood LTB-4 production (Leukotriene B-4) at a concentration of 10 mg/kg.; assay type: functional
[5] = species on record: Mus musculus; assay: Effective dose measured for mouse ex vivo whole blood LTB-4 production (Leukotriene B-4); assay type: functional
[6] = species on record: Mus musculus; assay: Effective dose measured for mouse ex vivo whole blood LTB-4 production; Range is from 1-3; assay type: functional
[7] = species on record: Mus musculus; assay: Effective dose measured for mouse ex vivo whole blood LTB-4 production; Range is from 1-3.; assay type: functional

CCOC(=O)CCN(C)CCCOc1ccc(Cc2ccccc2)cc1
ED90 [1]: 10 mg/kg | IC50 [2]: 110 nM

COC(=O)CCN(C)CCCOc1ccc(Cc2cccs2)cc1
ED90 [1]: 10 mg/kg | IC50 [2]: 95 nM

CCOC(=O)CNCCOc1ccc(Cc2ccccc2)cc1
IC50 [2]: > 30000 nM | IC50 [3]: 2500 nM

c1coc(-c2ccc(Oc3ccc(OCCN4CCCC4)cc3)cc2)n1
inhibition in vivo at 10 mg/kg [4]: 93%

CN(CCCOc1ccc(Oc2ccccc2)cc1)CCC(=O)O
IC50 [2]: 230 nM | ED90 [5]: 3 mg/kg | IC50 [3]: 19 nM

CCOC(=O)CCN(C)CCCCOc1ccc(Cc2ccccc2)cc1
IC50 [2]: 520 nM | IC50 [3]: > 10000 nM

CCOC(=O)CCNCCCOc1ccc(Cc2ccccc2)cc1
IC50 [2]: 450 nM | IC50 [3]: 84 nM

CCOC(=O)CNCCCCCOc1ccc(Cc2ccccc2)cc1
IC50 [2]: 420 nM | ED90 [5]: 10 mg/kg

CN(CCCCOc1ccc(Cc2ccccc2)cc1)CC(=O)O
IC50 [2]: 450 nM | IC50 [3]: 110 nM

CCOC(=O)CCCCNCCOc1ccc(Cc2ccccc2)cc1
IC50 [2]: 2500 nM | IC50 [3]: 10700 nM

O=C(O)CNCCCCOc1ccc(Cc2ccccc2)cc1
IC50 [2]: 230 nM | ED90 [5]: ≥ 10 mg/kg | IC50 [3]: 1.3 nM

CN(CCCOc1ccc(Cc2ccccc2)cc1)CCC(N)=O
inhibition in vivo at 10 mg/kg [4]: 98% | IC50 [2]: 110 nM | IC50 [3]: 7 nM

CN(CCCOc1ccc(Cc2ccc(F)cc2)cc1)CCC(=O)O
IC50 [2]: 190 nM | ED90 [5]: ≥ 10 mg/kg

CN(CCCOc1ccc(Cc2ccccc2)cc1)CCn1cnnn1
IC50 [2]: 560 nM | IC50 [3]: 1650 nM

CCOC(=O)CCCNCCOc1ccc(Cc2ccccc2)cc1
IC50 [2]: 2500 nM | IC50 [3]: 3700 nM

c1ccc(-c2ccc(OCCN3CCCC3)cc2)cc1
inhibition in vivo at 10 mg/kg [4]: 9%

COC(=O)CCN(C)CCCOc1ccc(Cc2cccnc2)cc1
inhibition in vivo at 10 mg/kg [4]: 58%

O=C(O)CCNCCCOc1ccc(Cc2ccccc2)cc1
IC50 [2]: 280 nM | ED90 [5]: ≥ 10 mg/kg

COC(=O)CCNCCOc1ccc(Cc2ccccc2)cc1
IC50 [2]: 590 nM

CCOC(=O)CN(C)CCCCOc1ccc(Cc2ccccc2)cc1
IC50 [2]: 3300 nM | IC50 [3]: 6600 nM

CN(CCCOc1ccc(Oc2ccc(F)cc2)cc1)CCC(=O)O
IC50 [2]: 210 nM | ED90 [5]: 3 mg/kg | IC50 [3]: 160 nM

CN(CCCOc1ccc(Cc2cccs2)cc1)CCC(=O)O
ED90 [1]: 10 mg/kg

CN(CCCOc1ccc(Oc2ccc(-c3ccccc3)cc2)cc1)CCC(=O)O
IC50 [2]: 190 nM | ED90 [5]: 10 mg/kg | IC50 [3]: < 0.5 nM

CN(CCCOc1ccc(Cc2ccccc2)cc1)CCC(=O)NS(C)(=O)=O
IC50 [2]: 70 nM | ED90 [5]: ≤ 1 mg/kg

CCOC(=O)CCNCCCCOc1ccc(Cc2ccccc2)cc1
IC50 [2]: 76 nM | ED90 [5]: 3 mg/kg

CN(CCCOc1ccc(Cc2ccccc2)cc1)CCC(=O)NS(=O)(=O)c1ccccc1
IC50 [2]: 75 nM | ED90 [5]: 3 mg/kg

CCOC(=O)CNCCCOc1ccc(Cc2ccccc2)cc1
inhibition in vivo at 10 mg/kg [4]: 22% | IC50 [2]: 1100 nM

CN(CCCOc1ccc(Cc2ccccc2)cc1)CCS(=O)(=O)O
IC50 [2]: 5200 nM | IC50 [3]: 220 nM

O=C(O)CCNCCCCOc1ccc(Cc2ccccc2)cc1
inhibition in vivo at 10 mg/kg [4]: 70% | IC50 [2]: 490 nM

CN(CCCOc1ccc(Cc2ccsc2)cc1)CCC(=O)O
ED90 [1]: 10 mg/kg

COC(=O)CCCN(C)CCOc1ccc(Cc2ccccc2)cc1
IC50 [2]: 460 nM | ED90 [5]: ≥ 10 mg/kg | IC50 [3]: 450 nM

COC(=O)CCN(C)CCCOc1ccc(Cc2ccsc2)cc1
ED90 [6]: 3 mg/kg | IC50 [2]: 250 nM | IC50 [3]: 870 nM

CN(CCCOc1ccc(Oc2ccc(-c3nccs3)cc2)cc1)CCC(=O)O
inhibition in vivo at 10 mg/kg [4]: 87% | IC50 [2]: 72 nM

CCOC(=O)CNCCCCOc1ccc(Cc2ccccc2)cc1
IC50 [2]: 350 nM | ED90 [5]: ≥ 10 mg/kg

CN(CCCOc1ccc(Oc2ccc(-c3ncco3)cc2)cc1)CCC(=O)O
IC50 [2]: 190 nM | ED90 [5]: ≥ 10 mg/kg

CN(CCCOc1ccc(Cc2ccccc2)cc1)CCS(N)(=O)=O
inhibition in vivo at 10 mg/kg [4]: 84% | IC50 [2]: 740 nM | IC50 [3]: 4 nM

CN(CCCOc1ccc(Cc2ccccc2)cc1)CCC(=O)O.Cl
ED90 [7]: 3 mg/kg

From ChEMBL document CHEMBL1135532, “Synthesis of potent leukotriene A(4) hydrolase inhibitors. Identification of 3-[methyl[3-[4-(phenylmethyl)phenoxy]propyl]amino]propanoic acid” (J Med Chem, 2002)
